# Measured values from patent US8715155B2, “Embryo development and survival” (University of Tennessee Research Foundation, priority 2005, dated 2014).
# Where two headings read alike, the source gives them in different places.
# Legend:
# [1] = tested on: 16- to 32-cell pre-compacted (in vitro-produced) embryos; assay: Culture of pre-compacted (in vitro-produced) embryos with PGF2α or PGE2; format: cell-based, bovine; details: vs control
# Procedure: Embryos are produced by a modified protocol for in vitro production of embryos described by Edwards and Hansen, Biol. Reprod. 55:340-346 (1996). Pre-compacted 16- to 32-cell stage embryos are rapidly washed in KSOM media (Biggers, J. D. 1991. J. Reprod. Fertil. 91:543) supplemented with polyvinyl alcohol (PVA) 3 mg/ml (0.3%). The embryos are evaluated for quality (normal shape, defined blastomeres, extruded blastomeres, cytoplasmic fragmentation, even cytoplasm), are evenly sorted in four groups (formed by embryos of good quality), are transferred to experimental treatments in a 4-well plate as described below, and are returned to the incubator (5.5% CO2, 7% O2, and 87.5% N2 at 38.5° C.). Embryos remain in each treatment for 4 additional days. Embryo development is assessed using IETS (International Embryo Transfer Society) guidelines for classification of bovine embryos.
# Dilutions (i.e., treatments) of PGF2α (Cayman Chemical Co.; Ann Arbor, Mich.) are prepared to obtain 0, 1, 10 and 100 ng/mL. Treatments are placed in each well of a 4-well plate (500 μL/well) and equilibrated in the incubator (5.5% CO2, 7% O2, and 87.5% N2 at 38.5° C.) for at least 5 h prior to embryo placement. […]
# Data are analyzed to test for blastocyst development and hatching rates using an incomplete block design and a randomized block design, respectively. […]
# recipient cattle = details: intramuscular injection immediately prior to or after non-surgical embryo transfer; vs controls; cited from earlier work
# [2] = tested on: compacted (in vivo-derived) morula stage embryos; assay: Culture of compacted (in vivo-derived) morula-stage embryos with PGF2α; format: cell-based, bovine; details: 0.1, 1 or 10 ng/mL PGF2α for 24 h
# Procedure: In vivo-derived glycerol-frozen morula-stage bovine embryos are thawed utilizing a three-step glycerol removal procedure. After washing, embryos are allowed to regain normal morphology for 30 min in Vigro holding medium and are sorted by stage of development and quality according with the IETS guidelines for classification of bovine embryos. For this study, a total of 4 replicates are used.
# Schrick, et al, Biol. Reprod. 49:617-621 (1993) reported 0.64 ng/mL of PGF2α in flush media from short cycle cows and a negative association of PGF2α concentration with embryo quality. Based on these findings, concentrations of 0 (control, KSOM-PVA), 0.1, 1, and 10 ng/mL of PGF2α in culture medium are selected as treatments. Each treatment is placed in a different well of a 4-well plate (500 μL/well) and then maintained in the incubator (5.5% CO2, 7% O2, and 87.5% N2 at 38.5° C.) for at least 5 h before placement of embryos to allow equilibration of medium. […]
# Morula embryos (Stage 4) of quality grade 1, 2 or 3 are rapidly washed four times in KSOM-PVA and randomly assigned to one of four treatments: 1) control (n=110); 2) 0.1 ng/mL PGF2α (n=108); 3) 1 ng/mL PGF2α (n=109), 4) 10 ng/mL PGF2α (n=109) and are placed in the incubator (5.5% CO2, 7% O2, and 87.5% N2 at 38.5° C.). […] Data are analyzed as in Example 1.a.
# [3] = tested on: Pre-compacted 16- to 32-cell stage bovine embryos; details: 1 ng/ml PGF on days 4 to 6 (48 h culture)
# Procedure: Pre-compacted 16- to 32-cell stage bovine embryos (day 4 post fertilization) are washed in KSOM-PVA and divided into four groups, each of which is cultured for 48 hours in KSOM-PVA containing one of the following: (1) 1000 nM AL-8810, n=95 (AL-8810 group); (2) 1 ng/ml PGF, n=91 (PGF group); (3) 1000 nM AL-8810+1 ng/ml PGF, n=90 (AL-8810+PGF group); or (4) KSOM-PVA without AL-8810 or PGF, n=84 (Control group).
# Following the 48 hour culture, embryos from each group are placed in HEPES-TALP and embryonic development is assessed by a technician who is uninformed of the treatments of the embryos in each group. Embryos from each treatment group are washed in KSOM-PVA and transferred to a 4-well plate with KSOM-PVA for further culture until day 8 post fertilization, when embryonic development is again assessed.
# [4] = tested on: progestin-supplemented cows; details: cited from earlier work
compound,measurement,setting,value
"CCCCC[C@H](O)/C=C/[C@H]1[C@H](O)CC(=O)[C@@H]1C/C=C\CCCC(=O)O [PGE2, Prostaglandin E2]",blastocyst development,"[1]; 5 ng/mL PGE2 in medium, P>0.10",does not differ between control and PGE2 treatments
Cc1c(Nc2ncccc2C(=O)O)cccc1C(F)(F)F [flunixin meglamine],pregnancy rates,recipient cattle,Pregnancy rates were significantly higher
prostaglandin F2α [PGF2α],blastocyst development,"[1]; 1, 10 or 100 ng/mL PGF2α in medium, 4 days culture, P=0.002",reduced blastocyst development when compared to control
same,development at least two stages beyond morula (IETS guidelines),"[2]; then 48 h without, P>0.10",does not differ between treatments
same,hatching rates,"[2]; vs control, P=0.05",decreased hatching rates when compared to control
same,percentage of embryos reaching blastocyst stage on day 8,[3],decreases the percentage of embryos reaching blastocyst stage on day 8
same,pregnancy rates,"[4]; PGF2α administered between days 5 and 8 of pregnancy, vs saline controls",decreased pregnancy rates compared to saline controls
same,pregnancy rates,[4]; PGF2α administered on days 10 to 13 or days 15 to 18,no effect on pregnancy rates
